Data from ChEMBL document CHEMBL1141271, “Laurendecumallenes A-B and laurendecumenynes A-B, halogenated nonterpenoid C(15)-acetogenins from the marine red alga Laurencia decumbens” (J Nat Prod, 2007).

test system: A549; test: Cytotoxicity against human A549 cells; assay type: functional, cell-based

SMILES	IC50
C#C/C=C\C[C@@H]1O[C@@H]2C[C@H](Br)[C@H](CC)O[C@@H]2C[C@@H]1Br	> 10 µg/mL
CC[C@H]1O[C@@H]2C[C@@H](C=C=CBr)O[C@@H]2C[C@@H](O)[C@H](O)C[C@@H]1Br [LAURENDECUMALLENE A]	> 10 µg/mL
CC[C@@H](Br)[C@H]1C[C@H](O)[C@H](O)C[C@H]2O[C@H](C=C=CBr)C[C@H]2O1 [LAURENDECUMALLENE B]	> 10 µg/mL
C#C/C=C\C[C@H]1O[C@@H]2C[C@H](Br)[C@@H](CC)O[C@H]1C[C@H]2OO [LAURENDECUMENYNE A]	> 10 µg/mL
C#C/C=C\C[C@@H]1O[C@@H]2C[C@H](Br)[C@H](CC)O[C@@H]2C[C@@H]1Cl [LAURENDECUMENYNE B]	> 10 µg/mL
